Activity calls are given as the source filed them. The calls are words filed in the database; no cut-off is given here.
Tested on: HeLa
Test: Cytoprotective activity against shiga toxin-induced cytotoxicity in human HeLa cells at 30 uM incubated for 4 hrs prior to shiga toxin addition measured after 20 hrs by liquid scintillation counting analysis
Format: functional, cell-based

Structure (SMILES) | EC50 [µM]
CN1c2ccccc2C(=O)N(c2ccccc2)C1c1ccc(Br)s1 (racemic) | 3.4
Cc1ccc(C2Nc3ccc(F)cc3C(=O)N2c2ccccc2)s1 (racemic) | 10.6
Cc1ccc(C2Nc3ccccc3C(=O)N2c2ccccc2Cl)s1 (racemic) | 14.8
Cc1ccc(C2N(C)c3ccccc3C(=O)N2c2ccccc2Cl)s1 (racemic) | 8.2
CSc1ccc(C2Nc3ccccc3C(=O)N2c2ccccc2)s1 (racemic) | 7.8
O=C1c2ccccc2NC(c2ccc(-c3ccccc3)s2)N1c1ccccc1 (racemic) | 3.7
O=C1c2ccccc2NC(c2ccc(-c3ccco3)s2)N1c1ccccc1 (racemic) | 4
CN1c2ccccc2C(=O)N(c2ccccc2)C1c1ccc(-c2ccccc2)s1 (racemic) | 2.1
Cc1ccc(C2N(C)c3ccccc3C(=O)N2c2ccccc2I)s1 (racemic) | 5.4
CSc1ccccc1N1C(=O)c2ccccc2N(C)C1c1ccc(C)s1 (racemic) | 3.8
O=C1c2ccccc2NC(c2ccc(Br)s2)N1c1ccccc1 (racemic) | 13.7
COc1ccccc1N1C(=O)c2ccccc2N(C)C1c1ccc(C)s1 (racemic) | 5.4
Cc1ccc(C2N(C)c3ccccc3C(=O)N2c2ccccc2S(=O)(=O)c2ccccc2)s1 (racemic) | 8
CSc1ccc(C2N(C)c3ccccc3C(=O)N2c2ccccc2)s1 (racemic) | 4.8

Tested on: HeLa
Test: Cytoprotective activity against shiga toxin-induced cytotoxicity in human HeLa cells at 30 uM incubated for 4 hrs prior to shiga toxin addition measured after 20 hrs by liquid scintillation counting analysis relative to Retro-2
Format: functional

Structure (SMILES) | Activity
Cc1ccc(C2Nc3ccccc3C(=O)N2c2ccc(Cl)cc2)s1 (racemic) | 0%
Cc1ccc(C2Nc3ccccc3C(=O)N2C2CCCCC2)s1 (racemic) | 0%
Cc1ccc(C2N(C)c3ccccc3C(=O)N2c2ccccc2Cc2ccccc2)s1 (racemic) | 1%
Cc1ccc(C2N(C)c3ccccc3C(=O)N2c2ccccc2Br)s1 (racemic) | 10.5%
CC(=O)c1ccc(-c2ccc(C3N(C)c4ccccc4C(=O)N3c3ccccc3)s2)cc1 (racemic) | 0.7%
Cc1ccc(C2Nc3c(C)cccc3C(=O)N2c2ccccc2)s1 (racemic) | 4%
CN1c2ccccc2C(=O)N(c2ccccc2)C1c1ccc(-c2cccs2)s1 (racemic) | 84%
CCCCN1C(=O)c2ccccc2NC1c1ccc(C)s1 (racemic) | 0%
COc1cc(-c2ccc(C3N(C)c4ccccc4C(=O)N3c3ccccc3)s2)cc(OC)c1OC (racemic) | 0%
CN1c2ccccc2C(=O)N(c2ccccc2)C1c1ccc(-c2ccc3[nH]ccc3c2)s1 (racemic) | 0%
Cc1ccc(C2Nc3ccccc3C(=O)N2c2ccc(Br)cc2)s1 (racemic) | 0%
CN1c2ccccc2C(=O)N(c2ccccc2)C1c1ccc(Br)s1 (racemic) | 118%
Cc1ccc(C2Nc3ccc(F)cc3C(=O)N2c2ccccc2)s1 (racemic) | 167.2%
CN1c2ccccc2C(=O)N(c2ccccc2)C1c1ccc(Sc2ccccc2)s1 (racemic) | 75.5%
CCN1c2ccccc2C(=O)N(c2ccccc2)C1c1ccc(C)s1 (racemic) | 2.9%
Cc1ccc(C2Nc3ccccc3C(=O)N2c2ccccc2Cl)s1 (racemic) | 211%
Cc1ccc(C2N(C)c3ccccc3C(=O)N2c2ccccc2Cl)s1 (racemic) | 230%
Cc1ccc(C2N(C)c3ccccc3C(=O)N2c2ccccc2)s1 (single isomer, unassigned; form 2) | Active
CSc1ccc(C2Nc3ccccc3C(=O)N2c2ccccc2)s1 (racemic) | 249%
Cc1ccc(C2Nc3ccccc3C(=O)N2C23CC4CC(CC(O)(C4)C2)C3)s1 (racemic) | 0%
CN1c2ccccc2C(=O)N(c2ccccc2)C1c1ccc(CO)s1 (racemic) | 0%
Cc1ccc(C2Nc3ccccc3C(=O)N2c2cccnc2)s1 (racemic) | 0%

Structure (SMILES) | Activity
CCCCN1c2ccccc2C(=O)N(c2ccccc2)C1c1ccc(C)s1 (racemic) | 0%
CN1c2ccccc2C(=O)N(c2ccccc2)C1c1ccc(-c2ccoc2)s1 (racemic) | 74.7%
Cc1ccc(C2Nc3ccccc3C(=O)N2c2cccc(C(F)(F)F)c2)s1 (racemic) | 0%
Cc1ccc(C2N(Cc3ccccc3)c3ccccc3C(=O)N2c2ccccc2)s1 (racemic) | 1%
Cc1ccc(C2N(C)c3ccccc3C(=O)N2c2ccccc2-c2ccccc2)s1 (racemic) | 99%
O=C1c2ccccc2NC(c2ccc(-c3ccccc3)s2)N1c1ccccc1 (racemic) | 287%
Cc1ccc2c(c1)C(=O)N(c1ccccc1)C(c1ccc(C)s1)N2 (racemic) | 11.2%
CCCN1c2ccccc2C(=O)N(c2ccccc2)C1c1ccc(C)s1 (racemic) | 0%
CN1c2ccccc2C(=O)N(c2ccccc2)C1c1ccc(-c2ccccn2)s1 (racemic) | 94.6%
O=C1c2ccccc2NC(c2cccnc2)N1c1ccccc1 (racemic) | 0%
CCC(C)N1C(=O)c2ccccc2NC1c1ccc(C)s1 (racemic) | 0%
Cc1ccc(C2Nc3ccccc3C(=O)N2[C@H]2C[C@@H]3CC[C@H]2C3)s1 (mixture of isomers) | 0%
Cc1ccc(C2Nc3ccccc3C(=O)N2C(C)C)s1 (racemic) | 0%
CCCc1ccc(C2Nc3ccccc3C(=O)N2c2ccccc2)s1 (racemic) | 54%
Cc1ccc(C2N(C)c3ccccc3C(=O)N2c2ccccc2C(F)(F)F)s1 (racemic) | 3%
Cc1ccc(C2Nc3ccccc3C(=O)N2c2cccc(Cl)c2)s1 (racemic) | 54%
CN1c2ccccc2C(=O)N(c2ccccc2)C1c1ccc(CNCc2ccccc2)s1 (racemic) | 6.2%
Cc1ccc(-c2ccc(C3N(C)c4ccccc4C(=O)N3c3ccccc3)s2)cc1[N+](=O)[O-] (racemic) | 0%
Cc1ccc(C2N(C)c3ccccc3C(=O)N2c2ccccc2C#N)s1 (racemic) | 54%
CN1c2ccccc2C(=O)N(c2ccccc2)C1c1ccc(-c2ccc(C#N)cc2)s1 (racemic) | 0%
O=C1c2ccccc2NC(c2cccs2)N1c1ccccc1 (racemic) | 0%
Cc1ccc(C2Nc3ccccc3C(=O)N2c2ccc(-c3ccccc3)cc2)s1 (racemic) | 0%

Structure (SMILES) | Activity
Cc1ccc(C2N(C)c3ccccc3C(=O)N2c2ccccc2OC(F)(F)F)s1 (racemic) | 4.4%
COC(=O)c1ccc(-c2ccc(C3N(C)c4ccccc4C(=O)N3c3ccccc3)s2)cc1 (racemic) | 2.9%
Cc1ccc(C2Nc3ccccc3C(=O)N2c2cccc(Br)c2)s1 (racemic) | 0%
CN1c2ccccc2C(=O)N(c2ccccc2)C1c1ccc(CCl)s1 (racemic) | 0%
O=C1c2ccccc2NC(c2ccc(-c3ccco3)s2)N1c1ccccc1 (racemic) | 438%
O=C1c2ccccc2NC(c2ccccc2)N1c1ccccc1 (racemic) | 0%
Cc1ccc(C2N(C)c3ccccc3C(=O)N2c2ccccc2)s1 (single isomer, unassigned; form 1) | inactive
Cc1ccc(C2N(c3ccccc3)C(=O)c3ccccc3N2C(=O)c2ccccc2)s1 (racemic) | 0%
Cc1ccc(C2N(C)c3ccccc3C(=O)N2c2ccccc2Oc2ccccc2)s1 (racemic) | 23%
CN1c2ccccc2C(=O)N(c2ccccc2)C1c1ccc(-c2ccccc2)s1 (racemic) | 309%
Cc1ccc(C2Nc3cc(F)ccc3C(=O)N2c2ccccc2)s1 (racemic) | 0%
CN1c2ccccc2C(=O)N(c2ccccc2)C1c1ccc(-c2cccc([N+](=O)[O-])c2)s1 (racemic) | 0%
CN(C)c1ccc(C2Nc3ccccc3C(=O)N2c2ccccc2)cc1 (racemic) | 48%
COc1ccc(C2Nc3ccccc3C(=O)N2c2ccccc2)cc1 (racemic) | 10%
Cc1ccc(C2Nc3ccccc3C(=O)N2c2ccncc2)s1 (racemic) | 0%
Cc1ccc(C2N(C)c3ccccc3C(=O)N2c2ccccc2I)s1 (racemic) | 254%
CSc1ccccc1N1C(=O)c2ccccc2N(C)C1c1ccc(C)s1 (racemic) | 150.6%
CN1c2ccccc2C(=O)N(c2ccccc2)C1c1ccc(-n2cccc2)s1 (racemic) | 12%
CN1c2ccccc2C(=O)N(c2ccccc2)C1c1ccc(-c2ccc(Oc3ccccc3)cc2)s1 (racemic) | 15.7%
CN1c2ccccc2C(=O)N(c2ccccc2)C1c1ccc(C#N)s1 (racemic) | 0%
Cc1ccc(C2N(C)c3ccccc3C(=O)N2c2ccccc2[N+](=O)[O-])s1 (racemic) | 33%
COc1cccc(C2Nc3ccccc3C(=O)N2c2ccccc2)c1 (racemic) | 0%

Structure (SMILES) | Activity
O=C1c2ccccc2NC(c2ccc(Br)s2)N1c1ccccc1 (racemic) | 146%
Cc1ccc(C2N(C)c3ccccc3C(=O)N2c2ccccc2Sc2ccccc2)s1 (racemic) | 9.6%
COc1ccccc1N1C(=O)c2ccccc2N(C)C1c1ccc(C)s1 (racemic) | 264.4%
Cc1ccc(C2N(C)c3ccccc3C(=O)N2c2ccccc2S(=O)(=O)c2ccccc2)s1 (racemic) | 145%
CN1c2ccccc2C(=O)N(c2ccccc2)C1c1ccc(C=O)s1 (racemic) | 0%
Cc1ccc(C2Nc3ccccc3C(=O)N2c2ccncn2)s1 (racemic) | 0.5%
Cc1ccc(C2Nc3ccccc3C(=O)N2c2ccccc2Br)s1 (racemic) | 0%
CSc1ccc(C2N(C)c3ccccc3C(=O)N2c2ccccc2)s1 (racemic) | 265.9%
COc1ccc2c(c1)C(=O)N(c1ccccc1)C(c1ccc(C)s1)N2 (racemic) | 2%
Cc1ccsc1C1Nc2ccccc2C(=O)N1c1ccccc1 (racemic) | 0%
CSc1ccccc1N1C(=O)c2ccccc2NC1c1ccc(C)s1 (racemic) | 75%
COc1ccc(CCN2C(=O)c3ccccc3NC2c2ccc(C)s2)cc1 (racemic) | 0%
Cc1ccc(C2N(C)c3ccccc3C(=O)N2c2ccccc2OCc2ccccc2)s1 (racemic) | 9.8%
Cn1cc(C2Nc3ccccc3C(=O)N2c2ccccc2)c2ccccc21 (racemic) | 0%
CN1c2ccccc2C(=O)N(c2ccccc2)C1c1ccc(-c2ccc3ccccc3c2)s1 (racemic) | 9.7%
CN1c2ccccc2C(=O)N(c2ccccc2)C1c1ccc(-c2cccc3ccccc23)s1 (racemic) | 0%
Cc1ccc(C2Nc3ccccc3C(=O)N2Cc2ccccc2)s1 (racemic) | 0%
CN1c2ccccc2C(=O)N(c2ccccc2)C1c1ccc(-c2csc3ccccc23)s1 (racemic) | 0%
COc1ccc(-c2ccc(C3N(C)c4ccccc4C(=O)N3c3ccccc3)s2)cc1OC (racemic) | 1.5%
COc1ccc(-c2ccc(C3N(C)c4ccccc4C(=O)N3c3ccccc3)s2)cc1 (racemic) | 26.2%
Cc1ccc(C2Nc3ccccc3C(=O)N2c2ccc(C#N)cc2)s1 (racemic) | 0%
Cc1csc(C2Nc3ccccc3C(=O)N2c2ccccc2)c1 (racemic) | 1%

Reference: ChEMBL document CHEMBL2321805, “N-methyldihydroquinazolinone derivatives of Retro-2 with enhanced efficacy against Shiga toxin” (J Med Chem, 2013)
